Measurements taken from ChEMBL document CHEMBL1201862, “PubChem BioAssay data set” (2004).
Calls of active or inactive are those of the source.

Tests used:
[1] = molecular target: FAD-linked sulfhydryl oxidase ALR (Homo sapiens, UniProt P55789); experiment: ALR-catalysed DTT oxidation blockers – biochemical, H2O2 detection, luminescence, cherry-pick, dose response (AID 493248)
[2] = molecular target: T1, Fatty acid synthase (Homo sapiens, UniProt P49327); experiment: inhibition of human FAS-TE enzyme activity – biochemical, endpoint fluorescence intensity, uHTS hits, dose response (AID 624327); type: functional;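 note: fluorescence from hydrolysis of an O-methyl fluorescein acyl ester substrate by the enzyme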
T1 sequence (P49327 whole entry): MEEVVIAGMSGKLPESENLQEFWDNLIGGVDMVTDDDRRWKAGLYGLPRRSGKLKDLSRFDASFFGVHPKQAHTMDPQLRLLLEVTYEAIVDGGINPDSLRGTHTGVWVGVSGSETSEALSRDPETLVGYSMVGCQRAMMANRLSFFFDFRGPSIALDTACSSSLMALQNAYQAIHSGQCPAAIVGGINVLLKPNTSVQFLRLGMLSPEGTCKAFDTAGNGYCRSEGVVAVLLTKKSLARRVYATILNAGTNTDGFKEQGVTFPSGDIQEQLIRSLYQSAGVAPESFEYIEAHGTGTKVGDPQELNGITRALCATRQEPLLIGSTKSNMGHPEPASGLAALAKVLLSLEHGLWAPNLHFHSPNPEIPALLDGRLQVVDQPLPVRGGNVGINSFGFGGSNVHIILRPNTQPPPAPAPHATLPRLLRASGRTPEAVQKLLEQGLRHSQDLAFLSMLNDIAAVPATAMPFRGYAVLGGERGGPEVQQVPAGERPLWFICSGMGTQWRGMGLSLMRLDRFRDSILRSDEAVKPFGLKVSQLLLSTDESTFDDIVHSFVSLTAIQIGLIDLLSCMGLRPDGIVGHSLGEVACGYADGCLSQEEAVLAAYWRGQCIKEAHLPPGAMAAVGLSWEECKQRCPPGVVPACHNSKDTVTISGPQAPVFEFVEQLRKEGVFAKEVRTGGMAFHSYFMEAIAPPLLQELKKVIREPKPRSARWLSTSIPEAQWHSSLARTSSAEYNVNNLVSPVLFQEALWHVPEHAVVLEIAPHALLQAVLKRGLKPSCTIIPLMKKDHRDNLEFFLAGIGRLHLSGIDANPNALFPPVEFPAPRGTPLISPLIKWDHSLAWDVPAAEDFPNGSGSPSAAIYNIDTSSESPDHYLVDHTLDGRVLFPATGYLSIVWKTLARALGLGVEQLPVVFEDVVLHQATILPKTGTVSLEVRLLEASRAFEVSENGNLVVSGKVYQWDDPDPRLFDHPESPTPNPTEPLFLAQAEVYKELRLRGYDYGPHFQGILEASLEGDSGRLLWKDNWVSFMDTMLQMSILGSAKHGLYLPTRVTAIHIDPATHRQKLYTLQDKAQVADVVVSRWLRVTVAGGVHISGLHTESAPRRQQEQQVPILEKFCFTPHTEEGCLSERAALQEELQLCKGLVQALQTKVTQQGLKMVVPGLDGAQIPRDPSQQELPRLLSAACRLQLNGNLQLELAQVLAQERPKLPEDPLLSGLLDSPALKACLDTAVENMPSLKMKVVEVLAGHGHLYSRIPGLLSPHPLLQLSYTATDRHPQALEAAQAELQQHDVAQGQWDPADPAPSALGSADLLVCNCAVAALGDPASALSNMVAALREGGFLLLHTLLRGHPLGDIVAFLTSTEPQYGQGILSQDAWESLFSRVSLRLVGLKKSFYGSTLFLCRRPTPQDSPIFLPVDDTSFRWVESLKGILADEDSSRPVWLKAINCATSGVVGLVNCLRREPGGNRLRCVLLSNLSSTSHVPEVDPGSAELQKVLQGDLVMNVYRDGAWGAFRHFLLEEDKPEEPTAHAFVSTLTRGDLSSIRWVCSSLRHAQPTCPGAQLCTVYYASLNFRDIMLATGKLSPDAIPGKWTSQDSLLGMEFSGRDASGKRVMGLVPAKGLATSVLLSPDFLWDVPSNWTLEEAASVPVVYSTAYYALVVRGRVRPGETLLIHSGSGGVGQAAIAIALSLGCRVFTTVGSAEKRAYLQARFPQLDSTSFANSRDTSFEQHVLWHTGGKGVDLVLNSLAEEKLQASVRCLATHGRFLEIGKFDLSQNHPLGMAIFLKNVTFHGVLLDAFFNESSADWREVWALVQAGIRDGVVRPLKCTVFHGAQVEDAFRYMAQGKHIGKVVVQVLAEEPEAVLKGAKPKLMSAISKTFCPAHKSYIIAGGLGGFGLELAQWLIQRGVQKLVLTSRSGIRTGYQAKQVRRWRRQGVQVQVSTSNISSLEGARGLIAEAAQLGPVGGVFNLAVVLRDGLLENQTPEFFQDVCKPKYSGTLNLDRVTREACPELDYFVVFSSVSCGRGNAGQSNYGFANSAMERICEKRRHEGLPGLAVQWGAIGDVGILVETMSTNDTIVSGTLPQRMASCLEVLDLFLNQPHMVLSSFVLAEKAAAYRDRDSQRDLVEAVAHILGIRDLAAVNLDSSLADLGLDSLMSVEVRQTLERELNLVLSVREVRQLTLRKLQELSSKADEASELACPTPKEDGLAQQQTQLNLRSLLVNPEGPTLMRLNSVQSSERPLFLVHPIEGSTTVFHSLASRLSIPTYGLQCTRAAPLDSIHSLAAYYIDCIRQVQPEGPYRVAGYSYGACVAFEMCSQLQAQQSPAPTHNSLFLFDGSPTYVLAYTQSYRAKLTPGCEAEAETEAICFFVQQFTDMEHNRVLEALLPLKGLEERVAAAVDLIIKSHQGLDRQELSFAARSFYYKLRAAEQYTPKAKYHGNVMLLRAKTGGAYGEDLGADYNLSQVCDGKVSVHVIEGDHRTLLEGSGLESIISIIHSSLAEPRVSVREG

[3] = molecular target: T1, Fatty acid synthase; experiment: inhibition of human FAS-TE enzyme activity – biochemical, kinetic fluorescence intensity, dose response (AID 624326); type: functional;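 note: rate of fluorescence rise from hydrolysis of a fluorogenic O-methyl fluorescein ester substrate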
[4] = cells; type: functional, cell-based
[5] = cells; type: functional, cell-based; remark: listed apart in the source
[6] = molecular target: Glucose-6-phosphate 1-dehydrogenase (Homo sapiens, UniProt P11413); experiment: inhibition of Homo sapiens G6PD, dose series – biochemical, fluorescence, selectivity assay for P. falciparum G6PD inhibitor project, dose response (AID 504792); type: functional
Glucose-6-phosphate 1-dehydrogenase, sequence (P11413 whole entry): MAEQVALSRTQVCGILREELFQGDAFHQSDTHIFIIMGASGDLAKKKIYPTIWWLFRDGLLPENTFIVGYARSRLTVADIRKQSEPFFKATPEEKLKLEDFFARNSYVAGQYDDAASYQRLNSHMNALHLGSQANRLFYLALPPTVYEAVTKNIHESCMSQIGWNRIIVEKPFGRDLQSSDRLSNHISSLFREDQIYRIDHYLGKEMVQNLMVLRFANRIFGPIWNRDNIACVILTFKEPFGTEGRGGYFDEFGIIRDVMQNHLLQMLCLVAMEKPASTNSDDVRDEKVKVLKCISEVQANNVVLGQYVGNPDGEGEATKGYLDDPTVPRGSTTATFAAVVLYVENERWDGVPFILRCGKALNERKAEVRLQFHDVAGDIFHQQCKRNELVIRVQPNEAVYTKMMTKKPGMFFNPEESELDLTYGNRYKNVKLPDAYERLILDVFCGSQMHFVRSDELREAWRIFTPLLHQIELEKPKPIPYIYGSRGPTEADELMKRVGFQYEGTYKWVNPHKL

[7] = system: BJ; experiment: BJ-TERT fibroblast viability loss – cell-based, RAS-independent, luminescence, dose response (AID 1933); type: functional; settings: Homo sapiens
[8] = system: BJ; experiment: cells; type: functional, cell-based; settings: Homo sapiens
[9] = system: BJ; experiment: BJ-TERT-LT-ST fibroblast viability loss – cell-based, RAS-independent, luminescence, dose response (AID 1935); type: functional; settings: Homo sapiens;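 note: BJ fibroblasts immortalized with TERT plus LT and ST oncogenes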
[10] = DRD fibroblast viability loss – cell-based, non-viral oncogenic, luminescence, dose response (AID 1934); type: functional; settings: Homo sapiens
[11] = system: Streptococcus sp. 'group A'; experiment: Streptococcus pyogenes SK(-)GAS viability under kanamycin – luminescence, BacTiterGlo, confirmation, counter-screen for streptokinase expression inhibitor project, dose response (AID 1900); type: functional, organism-based
[12] = molecular target: T2, Streptokinase A (Streptococcus pyogenes serotype M1, UniProt P10520); experiment: viability-normalized secreted streptokinase activity reduction – plasminogen activation absorbance, OD405, dose response (AID 1914); type: functional, Streptococcus pyogenes M1 GAS;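 note: secreted streptokinase activity via plasminogen activation per viability signal from cell pellet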
T2 sequence (P10520 whole entry): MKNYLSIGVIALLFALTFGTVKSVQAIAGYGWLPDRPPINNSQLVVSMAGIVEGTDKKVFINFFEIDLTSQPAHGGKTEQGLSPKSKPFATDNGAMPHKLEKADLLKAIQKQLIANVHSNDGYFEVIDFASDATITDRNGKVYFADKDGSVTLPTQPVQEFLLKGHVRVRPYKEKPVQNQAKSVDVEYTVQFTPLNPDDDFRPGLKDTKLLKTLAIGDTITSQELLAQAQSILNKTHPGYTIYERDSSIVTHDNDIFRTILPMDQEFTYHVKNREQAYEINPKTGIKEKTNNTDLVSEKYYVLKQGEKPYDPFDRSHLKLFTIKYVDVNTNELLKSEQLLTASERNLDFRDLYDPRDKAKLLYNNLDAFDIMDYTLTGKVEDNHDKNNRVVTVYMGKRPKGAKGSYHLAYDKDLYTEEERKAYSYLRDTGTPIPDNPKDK

[13] = system: Streptococcus; experiment: GAS UMAA2166 growth inhibition – luminescence, BacTiterGlo, counter-screen for streptokinase expression inhibitor project, dose response (AID 1915); type: functional, organism-based;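 note: potency for reduction of bacterial viability or growth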
[14] = molecular target: Glyceraldehyde-3-phosphate dehydrogenase (Homo sapiens, UniProt P04406)
Glyceraldehyde-3-phosphate dehydrogenase, sequence (P04406 whole entry): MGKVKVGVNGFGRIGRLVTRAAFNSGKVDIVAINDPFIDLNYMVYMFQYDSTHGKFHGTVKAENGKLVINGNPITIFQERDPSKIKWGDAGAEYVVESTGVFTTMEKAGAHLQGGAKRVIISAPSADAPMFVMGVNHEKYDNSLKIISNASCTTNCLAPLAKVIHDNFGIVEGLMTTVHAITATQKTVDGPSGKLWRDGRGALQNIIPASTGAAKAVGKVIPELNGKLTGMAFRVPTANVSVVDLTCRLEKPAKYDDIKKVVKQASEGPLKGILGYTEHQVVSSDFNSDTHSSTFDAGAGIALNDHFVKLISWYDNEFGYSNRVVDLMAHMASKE

[15] = molecular target: Genome polyprotein (dengue virus type 2, UniProt P29990); experiment: flavivirus cap methylation enzyme inhibition – biochemical, confirmation dose response, primary screen (AID 588689); type: functional
Genome polyprotein, sequence (P29990 2492-3391 limits assumed): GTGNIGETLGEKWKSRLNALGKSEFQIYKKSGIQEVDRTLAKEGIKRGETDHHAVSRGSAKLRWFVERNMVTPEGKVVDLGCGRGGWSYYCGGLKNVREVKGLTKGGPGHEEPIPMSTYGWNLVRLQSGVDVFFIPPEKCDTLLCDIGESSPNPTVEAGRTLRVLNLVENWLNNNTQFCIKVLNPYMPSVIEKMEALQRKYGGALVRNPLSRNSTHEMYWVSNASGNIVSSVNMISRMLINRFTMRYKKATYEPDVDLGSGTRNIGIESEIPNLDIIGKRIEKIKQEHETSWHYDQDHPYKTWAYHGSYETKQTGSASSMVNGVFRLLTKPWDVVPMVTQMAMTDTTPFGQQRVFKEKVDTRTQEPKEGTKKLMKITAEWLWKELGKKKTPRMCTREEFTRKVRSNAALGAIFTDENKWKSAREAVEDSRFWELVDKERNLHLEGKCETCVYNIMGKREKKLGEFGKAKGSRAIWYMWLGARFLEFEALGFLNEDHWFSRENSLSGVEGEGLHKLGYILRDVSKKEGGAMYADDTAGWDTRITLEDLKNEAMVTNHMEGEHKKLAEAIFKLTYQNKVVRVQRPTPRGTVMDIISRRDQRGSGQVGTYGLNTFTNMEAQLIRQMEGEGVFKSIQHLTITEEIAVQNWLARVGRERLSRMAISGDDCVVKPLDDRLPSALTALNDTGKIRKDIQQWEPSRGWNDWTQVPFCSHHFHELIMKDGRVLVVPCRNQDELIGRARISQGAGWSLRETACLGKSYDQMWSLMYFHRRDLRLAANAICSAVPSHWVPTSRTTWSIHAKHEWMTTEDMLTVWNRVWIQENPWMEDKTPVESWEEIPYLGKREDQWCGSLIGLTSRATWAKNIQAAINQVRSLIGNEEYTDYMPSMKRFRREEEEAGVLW

[16] = molecular target: T3, Polyadenylate-binding protein 1 (Homo sapiens, UniProt P11940); experiment: MLLE binding blockers, Cy5 peptide tracer – biochemical, fluorescence polarization, Cy5-PAM2 peptide, secondary, miRNA deadenylation inhibitor project, dose response (AID 602260); type: functional; settings: read-out: IC50_Mean
T3 sequence (P11940 whole entry, the tested form may be a part): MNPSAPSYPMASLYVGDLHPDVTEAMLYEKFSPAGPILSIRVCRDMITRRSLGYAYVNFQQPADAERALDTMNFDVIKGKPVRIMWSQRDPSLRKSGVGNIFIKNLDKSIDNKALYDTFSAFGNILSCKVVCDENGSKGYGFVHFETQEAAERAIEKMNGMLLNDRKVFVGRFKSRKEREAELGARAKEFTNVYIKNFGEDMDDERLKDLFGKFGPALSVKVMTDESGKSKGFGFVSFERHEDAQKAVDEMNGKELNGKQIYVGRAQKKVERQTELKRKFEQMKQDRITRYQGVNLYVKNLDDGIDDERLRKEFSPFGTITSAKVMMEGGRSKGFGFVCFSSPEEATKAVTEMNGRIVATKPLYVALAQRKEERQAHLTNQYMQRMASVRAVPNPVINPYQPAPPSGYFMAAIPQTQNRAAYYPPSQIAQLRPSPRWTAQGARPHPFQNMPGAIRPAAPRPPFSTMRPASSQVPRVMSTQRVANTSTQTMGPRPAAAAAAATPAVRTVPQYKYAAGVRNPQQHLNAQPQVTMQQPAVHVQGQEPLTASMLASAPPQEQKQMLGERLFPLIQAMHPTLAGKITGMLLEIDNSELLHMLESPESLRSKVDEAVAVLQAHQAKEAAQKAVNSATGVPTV

[17] = molecular target: T3, Polyadenylate-binding protein 1; experiment: MLLE domain peptide-binding blockers, IC50 – biochemical, fluorescence polarization, FITC-PAM2 peptide, dose response (AID 602259); type: functional; settings: read-out: IC50_Mean
[18] = blockers of bursicon-stimulated LGR2 cAMP reporter – cell-based, HEK293, CRE-luciferase reporter, cherry pick, set 2, dose response (AID 743343); type: functional;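 note: transfected cells were stimulated with diluted bursicon conditioned medium after compound addition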
[19] = blockade of melanocortin 4 receptor signaling – cell-based, plate reader, cherry pick, counter-screen for LGR2 antagonist project, dose response (AID 743444); type: functional;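 note: transfected HEK 293 cells stimulated with alpha-MSH peptide; potency of inhibitors of the alpha-MSH evoked signal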
[20] = THP-1 cell cytotoxicity, dose response, cytotoxicity control for non-replicating M. tuberculosis project (AID 489025); type: functional
[21] = molecular target: Nonstructural protein 1 (Influenza A virus, UniProt Q194T2); type: functional, Influenza A virus (A/California/07/2009(H1N1))
[22] = A549 cell cytotoxicity, dose response, cytotoxicity control, plate reader, cherry-pick, antagonist series (AID 743412); type: functional, cell-based
[23] = reduction of Shn3 3'UTR-driven luciferase in osteoblasts – cell-based, Clone20 osteoblasts, firefly luciferase, cherry-picked, dose response (AID 624132); type: functional;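 note: firefly luciferase luminescence from reporter carrying the Shn3 3'UTR in osteoblasts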
[24] = non-specific 3'UTR reporter inhibition in Clone20-Shn3RL – cell-based, Renilla luciferase, cherry-picked, counter-screen for Shn3 inhibitor project, dose response (AID 624133); type: functional
[25] = molecular target: T4, Calpain-2 catalytic subunit (Sus scrofa, UniProt P43367); experiment: m-calpain protease blockers, concentration series – biochemical, fluorogenic peptide substrate, dose response (AID 1420); type: functional
T4 sequence (P43367 whole entry): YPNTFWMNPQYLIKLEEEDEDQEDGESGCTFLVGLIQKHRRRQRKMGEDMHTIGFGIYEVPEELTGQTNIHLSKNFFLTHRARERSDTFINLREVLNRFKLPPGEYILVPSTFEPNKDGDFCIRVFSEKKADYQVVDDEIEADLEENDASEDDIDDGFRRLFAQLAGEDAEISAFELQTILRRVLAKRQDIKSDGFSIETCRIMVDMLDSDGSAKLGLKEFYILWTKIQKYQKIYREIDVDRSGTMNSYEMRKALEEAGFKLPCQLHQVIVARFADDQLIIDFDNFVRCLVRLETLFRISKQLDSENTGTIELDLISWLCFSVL

FAD-linked sulfhydryl oxidase ALR, sequence (P55789 whole entry): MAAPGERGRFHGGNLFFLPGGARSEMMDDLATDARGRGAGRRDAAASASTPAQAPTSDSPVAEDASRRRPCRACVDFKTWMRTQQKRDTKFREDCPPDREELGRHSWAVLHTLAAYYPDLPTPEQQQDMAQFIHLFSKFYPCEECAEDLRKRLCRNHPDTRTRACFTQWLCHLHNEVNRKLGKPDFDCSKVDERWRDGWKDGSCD

O=C(O)Cc1ccc(NCc2ccccc2Cl)cc1
AC50 [1]: 4.81 µM (active)

CC(C)(C)c1ccc(C(=O)N/C(=C\c2cccc([N+](=O)[O-])c2)C(=O)Nc2cccc(C(=O)O)c2)cc1
IC50 [2]: 2.44 µM (active) | IC50 [3]: 1.48 µM (active)

Cc1cccc(NC(=O)COc2cccc3c2CCN(C)C3=O)c1C
EC50 [4]: > 350 µM (not active) | EC50 [5]: > 350 µM (not active)

O=C(CNC(=O)c1cccs1)OCC(=O)c1ccc([N+](=O)[O-])cc1
IC50 [6]: > 80 µM (inactive)

O=C(O)c1ccccc1C(=O)c1ccc(N2CCOCC2)c([N+](=O)[O-])c1
EC50 [7]: > 150 µM (not active) | EC50 [8]: > 150 µM (not active) | EC50 [9]: > 150 µM (not active) | EC50 [10]: > 150 µM (not active)

CC(NC(=O)COC(=O)c1cc([N+](=O)[O-])ccc1N1CCOCC1)c1ccc(F)cc1 (centres undefined)
IC50 [2]: 1.95 µM (active) | IC50 [3]: 1.48 µM (active)

CCOC(=O)c1ccc(NC(=O)c2[nH]cnc2C(=O)N[C@@H](CCCCNC(=O)OC(C)(C)C)C(=O)OC(C)(C)C)cc1
EC50 [11]: 6.84 µM (active) | EC50 [12]: > 150 µM (not active) | EC50 [13]: 55.6 µM (active) | IC50 [2]: 0.539 µM (active) | IC50 [3]: 0.463 µM (active)

COc1ccc(N/N=C(\C#N)C(=N)N2CCCCC2)cc1
AC50 [1]: 0.077 µM (active)

O=C1C(Cl)=C(N2CCN(Cc3ccccc3)CC2)C(=O)N1c1cccc(C(F)(F)F)c1
IC50 [14]: > 50 µM (inconclusive)

COc1ccc(S(=O)(=O)Nc2nc3ccccc3nc2Nc2cccc(C(=O)O)c2)cc1
IC50 [15]: 34.5 µM (active)

S=C(Nc1ccc(Cl)cc1)Nc1ccc2c[nH]nc2c1
EC50 [4]: > 350 µM (not active) | EC50 [5]: > 350 µM (not active)

COCCN1CN(S(=O)(=O)c2ccccc2)c2nc3ccccc3nc21
IC50 [16]: > 66 µM (inactive) | IC50 [17]: 55.4 µM (inactive)

Cc1csc(NC(=O)c2ccc(OCC3CCCO3)cc2)n1 (centres undefined)
AC50 [18]: 2.55 µM (active) | AC50 [19]: 1.96 µM (active)

Cc1ccc(NC2CCCN(C(=O)c3ccnc(Cl)c3)C2)cc1C (centres undefined)
AC50 [1]: 3.32 µM (active)

ON=CN=C(S)Nc1ncc(C(F)(F)F)cc1Cl
IC50 [16]: > 66 µM (inactive) | IC50 [17]: > 66 µM (inactive)

CCOC(=O)N1CCC(NS(=O)(=O)c2cc3c(cc2Cl)NC(=O)CO3)CC1
CC50 [20]: 33.4 µM (active)

COc1ccc(N2CCN(CCNC(=O)Nc3ccc([N+](=O)[O-])cc3OC)CC2)cc1
IC50 [21]: > 100 µM (active) | AC50 [1]: 2.24 µM (active)

CCCN1C(=O)/C(=C\C=C2/Sc3ccccc3N2CC)SC1=S
EC50 [7]: > 150 µM (not active) | EC50 [8]: > 150 µM (not active) | EC50 [9]: > 150 µM (inconclusive) | EC50 [10]: > 150 µM (not active)

S=C(NN=Cc1ccccn1)N(Cc1ccccn1)Cc1ccccn1
IC50 [6]: > 80 µM (inactive) | IC50 [21]: 1.59 µM (active)

CN(C)S(=O)(=O)c1cccc(NC(=O)COc2ccccc2C(=O)Nc2ccccc2)c1
AC50 [22]: 30.6 µM (active) | AC50 [18]: 20.1 µM (active) | AC50 [19]: 22.9 µM (active)

Cn1cc(CN2CCC(C(=O)Nc3cccc(-c4cscn4)c3)CC2)cn1
EC50 [4]: > 350 µM (not active) | EC50 [5]: > 350 µM (not active)

CCOc1ccccc1CN1CCN(S(C)(=O)=O)CC1
EC50 [4]: > 350 µM (not active) | EC50 [5]: > 350 µM (not active)

Cc1ccc([C@@H]2CC=C(C(=O)O)[C@H](c3ccc(Br)cc3)N2S(=O)(=O)c2ccccc2C)cc1
IC50 [15]: 34 µM (active)

CCc1n[nH]c(C(=O)N2CCCC(Nc3ccc(C(C)C)cc3)C2)c1C (centres undefined)
AC50 [1]: 3.61 µM (active)

Nc1nc(-c2ccccc2)cn1/N=C/c1cccc([N+](=O)[O-])c1
IC50 [14]: > 100 µM (not active)

Cn1c(S)nnc1CNS(=O)(=O)c1ccc(Br)cc1
AC50 [1]: 4.95 µM (active)

COc1ccc(Br)cc1/C=C/C(=O)NC(=S)Nc1ccc(Cl)c(C(=O)O)c1
EC50 [11]: 56.5 µM (active) | EC50 [13]: 5.98 µM (active) | IC50 [15]: 46.9 µM (active)

NC(=O)CSc1nnc2ccc(-c3ccc(Cl)cc3)nn12
EC50 [4]: > 350 µM (not active) | EC50 [5]: > 350 µM (not active)

O=C(CSc1ncnc2sc3c(c12)CCCC3)N1CCC(c2noc3ccc(F)cc23)CC1
EC50 [7]: 30.7 µM (active) | EC50 [8]: > 150 µM (not active) | EC50 [9]: > 150 µM (not active) | EC50 [10]: > 150 µM (not active)

CCCCC1=CC2=CC(=O)C(C)(OC(=O)CC)C(=O)C2=CN1CCCCO (centres undefined)
IC50 [16]: > 66 µM (inactive) | IC50 [17]: > 66 µM (inactive)

COc1ccc(CNC(=O)c2ccc3c(c2)N(C)CCS3)cc1
AC50 [1]: 15.4 µM (active)

O=C(COC(=O)CCc1ccccc1)Nc1cc([N+](=O)[O-])ccc1F
IC50 [2]: 5.19 µM (active) | IC50 [3]: 6.27 µM (active)

CC(=O)c1cccc(NC(=S)NC(=O)c2ccc(Br)cc2)c1
IC50 [16]: > 66 µM (inactive) | IC50 [17]: > 66 µM (inactive)

CCOC(=O)c1sc(NC(=O)CCCn2nc([N+](=O)[O-])c(Cl)c2C)c(C(=O)OCC)c1C
AC50 [23]: 6.34 µM (active) | AC50 [24]: 15.4 µM (active)

COc1ccc(N2CCN(C(=O)c3ccccc3N(C)S(=O)(=O)c3ccccc3)CC2)cc1
AC50 [1]: 8.08 µM (active)

COc1ccc(CC2C(=O)N(C)C(=O)N(C)C2=O)c(OC)c1
IC50 [16]: > 66 µM (inactive) | IC50 [17]: > 66 µM (inactive)

Cc1nc(NC(=O)CCl)sc1C(=O)N(C)C
EC50 [7]: > 150 µM (not active) | EC50 [8]: > 150 µM (not active) | EC50 [9]: > 150 µM (not active) | EC50 [10]: 28.3 µM (active)

CC(C)(C)OC(=O)NCCCCCNC(=O)c1[nH]cnc1C(=O)N[C@@H](CCCCNC(=O)OC(C)(C)C)C(=O)OC(C)(C)C
IC50 [25]: 10.7 µM (not active)

CC(NC(=O)c1ccc(N(C)C)cc1)C(c1cccs1)N1CCN(C)CC1 (centres undefined)
AC50 [1]: 1.24 µM (active)

N#CCCN(C(=S)NC(=O)c1ccco1)c1ccccc1F
IC50 [16]: > 66 µM (inactive) | IC50 [17]: > 66 µM (inactive)

CCC(C(=O)NC1CCCC1)N(Cc1ccco1)C(=O)Cn1nnc(-c2ccc(C)cc2)n1 (centres undefined)
IC50 [25]: 16.3 µM (not active)
